Starred links: 1 amine or outer side, 2 acyl side, 3 side chain; linkers in the order of their positions; H or OH if unused. Positions of bridges follow the written chain, without caps; N, C: chain ends. Non-standard residues stand in square brackets, D forms with d. Residues, ends and D or L forms follow the SMILES beside them. 2Pal(6-thiazolin-2-yl-4R-CO) = O=C([C@H](Cc1cccc(C2=N[C@H](C(=O)[*:3])CS2)n1)N[*:1])[*:2]; Phe(3-(4R-CO-2-thiazolinyl)) = O=C([C@H](Cc1cccc(C2=N[C@H](C(=O)[*:3])CS2)c1)N[*:1])[*:2]; dCha = N[C@H](CC1CCCCC1)C(=O)O
How the values were obtained:
[1] = Metabolic stability of cyclic peptides in human liver microsomes (HLM residual rate); type: in vitro ADME; conditions: 1 μmol/L, human liver microsomes 0.5 mg protein/mL, 37° C., 20 minutes, NADPH and UDPGA
Protocol: Test of metabolic stability of cyclic peptide in human liver microsome
An experiment using human liver microsomes (HLMs) was carried out in order to compare and examine the metabolic stability of the synthesized cyclic peptides.
The compound with a final concentration of 1 μmol/L was incubated in human liver microsomes (BD Cat #452117) prepared to a final concentration of 0.5 mg protein/mL using 100 mmol/L phosphate buffer (pH 7.4) at 37° C. for 20 minutes in the presence of reduced nicotinamide adenine dinucleotide phosphate (NADPH) and uridine 5′-diphosphate-α-D-glucuronic acid (UDPGA). Deproteinization treatment with acetonitrile was carried out, the amount of unaltered substance remaining was quantified using LC/MS/MS, and the residual rate (%) in 20 minutes was calculated. The HLM residual rate (%) obtained by this method is described in the following table.
(§1) Evaluation standards are as follows.

[2] = Membrane permeability of synthesized cyclic peptides by PAMPA (Measurement Method A: 1 μmol/L; Method B: 10 μmol/L); type: in vitro ADME; conditions: Measurement method A, 25° C., 4 hours
Protocol: Evaluation of membrane permeability of synthesized cyclic peptide by PAMPA method In order to compare and examine the membrane permeability of the synthesized cyclic peptide, parallel artificial membrane permeability assay (PAMPA) was carried out.
An artificial phospholipid membrane was produced by adding 5 μL of a phospholipid organic solvent solution consisting of L-α-phosphatidylcholine (Avanti Polar Lipids, Inc., Cat. 840051P, 1.67%), 1,2-dioleoyl-sn-glycero-3-phospho-L-serine (Avanti Polar Lipids, Inc., Cat. 840035P, 0.33%), and n-dodecane special grade (Wako Pure Chemical Industries, Ltd., 047-21612)/1-octanol reagent special grade (Kanto Chemical Co., Inc., Cat. 31013-08)=10:1 to Filter Plate (Merck Millipore Corporation, Cat. MAIPN4550).
475 μL of 50 mmol/L potassium phosphate buffer (KPB, pH 7.4 or pH 6.5) was added to 25 μL of a DMSO solution containing the compound at a concentration of 20 μmol/L, so that the compound was diluted to a final concentration of 1 μmol/L. 300 μL of the compound solution was added to the lower side (donor side) of PAMPA 96-well plate (Filter Plate (Merck Millipore Corporation, Cat. MAIPN4550)) with an artificial phospholipid membrane being interposed therebetween. 200 μL of 5% DMSO KPB (pH 7.4) was added to the upper side (acceptor side) with the artificial phospholipid membrane being interposed therebetween. A permeation test through an artificial phospholipid membrane was carried out at 25° C. for 4 hours. The compound concentration in the solution in the donor plate and the acceptor plate was measured by LC/MS/MS, and the membrane permeation rate (Pe) of the compound was calculated from the following formula, assuming that C0 is an initial compound concentration in donor solution, t is a test time, A is a membrane filter area=0.3 cm^2, VD is a donor solution amount=300 μL, VA is an acceptor solution amount=200 μL, and CD(t) is a compound concentration in donor solution at time t, CA(t) is a compound concentration in acceptor solution at time t, and Cequilibrium=[CD(t)*VD+CA(t)*VA]/(VD+VA).
475 μL of 50 mmol/L potassium phosphate buffer (KPB, pH 7.4 or pH 6.5) was added to 25 μL of a DMSO solution containing the compound at a concentration of […], so that the compound was diluted to a final concentration of 10 μmol/L. The compound solution was added 300 μL each to the lower side (donor side) of an artificial phospholipid membrane of PAMPA 96-well plate (Filter Plate (Merck Millipore Corporation, Cat. MAIPN4550)). 200 μL of 5% DMSO KPB (pH 7.4) was added to the upper side (acceptor side) with the artificial phospholipid membrane being interposed therebetween. A permeation test through an artificial phospholipid membrane was carried out at 25° C. for 4 hours. The compound concentration in the solution in the donor plate and the acceptor plate was measured by LC/MS/MS, and the membrane permeation rate (Pe) of the compound was calculated from the following formula, assuming that Co is an initial compound concentration in donor solution, t is a test time, A is a membrane filter area=0.3 cm^2, VD is a donor solution amount=300 μL, VA is an acceptor solution amount=200 μL, and CD(t) is a compound concentration in donor solution at time t, CA(t) is a compound concentration in acceptor solution at time t, and Cequilibrium=[CD(t)*VD+CA(t)*VA]/(VD+VA).
The membrane permeability (Pe(10^−6 cm/s)) obtained by this method is described in the following table.
as §1

SMILES | HLM residual rate [1] | Pe(10^−6 cm/sec) [2]
N=C(N)NCCC[C@@H]1NC(=O)[C@H](Cc2c[nH]c3ccccc23)NC(=O)[C@@H](CC2CCCCC2)NC(=O)[C@@H]2CCCN2C(=O)[C@@H]2CSC(=N2)c2cc(cs2)C[C@@H](C(N)=O)NC1=O [2-16] | ++ (40%<HLM residual rate (%)≤60%) | +++ (0.5<Pe (10^−6 cm/s))
N=C(N)NCCC[C@@H]1NC(=O)[C@H](Cc2c[nH]c3ccccc23)NC(=O)[C@@H](CC2CCCCC2)NC(=O)[C@@H]2CCCN2C(=O)[C@@H]2CSC(=N2)c2ccnc(c2)C[C@@H](C(N)=O)NC1=O [2-10] | +++ (60%<HLM residual rate (%)) | +++ (0.5<Pe (10^−6 cm/s))
N=C(N)NCCC[C@@H]1NC(=O)[C@H](Cc2c[nH]c3ccccc23)NC(=O)[C@@H](CC2CCCCC2)NC(=O)[C@@H]2CCCN2C(=O)[C@@H]2CSC(=N2)c2ccncc2C[C@@H](C(N)=O)NC1=O [2-5] | ++ (40%<HLM residual rate (%)≤60%) | ++ (0.2<Pe (10^−6 cm/s)≤0.5)
CC1(C)SC2=N[C@@H]1C(=O)N1CCC[C@H]1C(=O)N[C@H](CC1CCCCC1)C(=O)N[C@@H](Cc1c[nH]c3ccccc13)C(=O)N[C@@H](CCCNC(=N)N)C(=O)N[C@H](C(N)=O)Cc1cccc2n1 [2-21] | +++ (60%<HLM residual rate (%)) | +++ (0.5<Pe (10^−6 cm/s))
N=C(N)NCCC[C@@H]1NC(=O)[C@H](Cc2c[nH]c3ccccc23)NC(=O)[C@@H](CC2CCCCC2)NC(=O)[C@@H]2CCCN2C(=O)[C@@H]2CSC(=N2)c2csc(n2)C[C@@H](C(N)=O)NC1=O [2-19] | +++ (60%<HLM residual rate (%)) | +++ (0.5<Pe (10^−6 cm/s))
COc1cc2cnc1C1=N[C@@H](CS1)C(=O)N1CCC[C@H]1C(=O)N[C@H](CC1CCCCC1)C(=O)N[C@@H](Cc1c[nH]c3ccccc13)C(=O)N[C@@H](CCCNC(=N)N)C(=O)N[C@H](C(N)=O)C2 [2-22] | +++ (60%<HLM residual rate (%)) | ++ (0.2<Pe (10^−6 cm/s)≤0.5)
N=C(N)NCCC[C@@H]1NC(=O)[C@H](Cc2c[nH]c3ccccc23)NC(=O)[C@@H](CC2CCCCC2)NC(=O)[C@@H]2CCCN2C(=O)[C@@H]2CSC(=N2)c2cnc(cn2)C[C@@H](C(N)=O)NC1=O [2-13] | +++ (60%<HLM residual rate (%)) | 
N=C(N)NCCC[C@@H]1NC(=O)[C@H](Cc2c[nH]c3ccccc23)NC(=O)[C@@H](CC2CCCCC2)NC(=O)[C@@H]2CCCN2C(=O)[C@@H]2CSC(=N2)c2nc(cs2)C[C@@H](C(N)=O)NC1=O [2-18] | ++ (40%<HLM residual rate (%)≤60%) | 
N=C(N)NCCC[C@@H]1NC(=O)[C@H](Cc2c[nH]c3ccccc23)NC(=O)[C@@H](CC2CCCCC2)NC(=O)[C@@H]2CCCN2C(=O)[C@@H]2CSC(=N2)c2cccnc2C[C@@H](C(N)=O)NC1=O [2-6] | +++ (60%<HLM residual rate (%)) | ++ (0.2<Pe (10^−6 cm/s)≤0.5)
N=C(N)NCCC[C@@H]1NC(=O)[C@H](Cc2c[nH]c3ccccc23)NC(=O)[C@@H](CC2CCCCC2)NC(=O)[C@@H]2CCCN2C(=O)[C@@H]2CSC(=N2)c2cncc(c2)C[C@@H](C(N)=O)NC1=O [2-7] | +++ (60%<HLM residual rate (%)) | +++ (0.5<Pe (10^−6 cm/s))
N=C(N)NCCC[C@@H]1NC(=O)[C@H](Cc2c[nH]c3ccccc23)NC(=O)[C@@H](CC2CCCCC2)NC(=O)[C@@H]2CCCN2C(=O)[C@@H]2CSC(=N2)c2cc3c(cccc3s2)C[C@@H](C(N)=O)NC1=O [2-1] | +++ (60%<HLM residual rate (%)) | +++ (0.5<Pe (10^−6 cm/s))
N=C(N)NCCC[C@@H]1NC(=O)[C@H](Cc2c[nH]c3ccccc23)NC(=O)[C@@H](CC2CCCCC2)NC(=O)[C@@H]2CCCN2C(=O)[C@@H]2CSC(=N2)c2cccc(n2)C[C@@H](C(N)=O)NC1=O [2-9] (P[dCha]WR[2Pal(6-thiazolin-2-yl-4R-CO)]-NH2; lactam N-5) | +++ (60%<HLM residual rate (%)) | 
N=C(N)NCCC[C@@H]1NC(=O)[C@H](Cc2c[nH]c3ccccc23)NC(=O)[C@@H](CC2CCCCC2)NC(=O)[C@@H]2CCCN2C(=O)[C@@H]2CSC(=N2)c2ccc(nc2)C[C@@H](C(N)=O)NC1=O [2-11] | +++ (60%<HLM residual rate (%)) | +++ (0.5<Pe (10^−6 cm/s))

The next lines start with the values.

HLM residual rate [1] | Pe(10^−6 cm/sec) [2] | SMILES
+++ (60%<HLM residual rate (%)) | +++ (0.5<Pe (10^−6 cm/s)) | N=C(N)NCCC[C@@H]1NC(=O)[C@H](Cc2c[nH]c3ccccc23)NC(=O)[C@@H](CC2CCCCC2)NC(=O)[C@@H]2CCCN2C(=O)[C@@H]2CSC(=N2)c2cccc(c2)C[C@@H](C(N)=O)NC1=O [3-4] (P[dCha]WR[Phe(3-(4R-CO-2-thiazolinyl))]-NH2; lactam N-5)
+ (HLM residual rate (%)≤40%) | + (0.01<Pe (10^−6 cm/s)≤0.2) | CC(=O)N[C@H]1CSSC[C@@H](C(N)=O)NC(=O)[C@H](CCCNC(=N)N)NC(=O)[C@H](Cc2c[nH]c3ccccc23)NC(=O)[C@@H](CC2CCCCC2)NC(=O)[C@@H]2CCCN2C1=O [9-1] (Ac-CP[dCha]WRC-NH2; disulfide 1-6)
+ (HLM residual rate (%)≤40%) | + (0.01<Pe (10^−6 cm/s)≤0.2) | C[C@@H]1NC(=O)CSC[C@@H](C(N)=O)NC(=O)[C@H](CCCNC(=N)N)NC(=O)[C@H](Cc2c[nH]c3ccccc23)NC(=O)[C@@H](CC2CCCCC2)NC(=O)[C@@H]2CCCN2C1=O [7-1] ({CH2CO}-AP[dCha]WRC-NH2; thioether N-6)
+++ (60%<HLM residual rate (%)) |  | N=C(N)NCCC[C@@H]1NC(=O)[C@H](Cc2c[nH]c3ccccc23)NC(=O)[C@@H](CC2CCCCC2)NC(=O)[C@@H]2CCCN2C(=O)[C@@H]2CSC(=N2)c2ncccc2C[C@@H](C(N)=O)NC1=O [3-3]
+++ (60%<HLM residual rate (%)) | +++ (0.5<Pe (10^−6 cm/s)) | N=C(N)NCCC[C@@H]1NC(=O)[C@H](Cc2c[nH]c3ccccc23)NC(=O)[C@@H](CC2CCCCC2)NC(=O)[C@@H]2CCCN2C(=O)[C@@H]2CSC(=N2)c2cc3cc(ccc3[nH]2)C[C@@H](C(N)=O)NC1=O [3-2]
+++ (60%<HLM residual rate (%)) | +++ (0.5<Pe (10^−6 cm/s)) | N=C(N)NCCCC1NC(=O)[C@H](Cc2c[nH]c3ccccc23)NC(=O)[C@@H](CC2CCCCC2)NC(=O)[C@@H]2CCCN2C(=O)c2csc(n2)-c2cccc(c2)C[C@@H](C(N)=O)NC1=O (stereo partly shown) [6-1]

Reference: US11319347B2, “Peptide compound and method for producing same, composition for screening use, and method for selecting peptide compound” (FUJIFILM Corporation, priority 2017, dated 2022)
